Data reported in patent US20210379210A1, “RADIOLIGANDS FOR IMAGING THE LPA1 RECEPTOR” (BRISTOL-MYERS SQUIBB COMPANY, priority 2018, published 2021).

Experiments:
LPA1 = LPA1 (Rattus norvegicus, UniProt P61794); assay: In-vivo PET imaging in bleomycin treated rat model, LPA1 target engagement (% displacement); details: bleomycin treated rats
Procedure: (§1) [^18F]-(1S,3S)-3-(((6-(5-((((4-(fluoro)butyl)(methyl)carbamoyl)oxy)methyl)-1-methyl-1H-1,2,3-triazol-4-yl)-2-methylpyridin-3-yl)oxy)cyclohexane-1-carboxylic acid was tested to confirm its properties, specificity and targeting of the LPA1 receptor in aged-matched wild type (Sprague Dawley rat, Charles River Laboratory, PA) and bleomycin-induced pulmonary fibrosis rat models. The bleomycin-induced pulmonary fibrosis rat model was generated in anesthetized rats that were administered bleomycin (2 μL/g) via oropharyngeal instillation. For oropharyngeal instillation, anesthetized rats (isoflurane, 4% in 100% 02) were placed on a slanted board/tilting workstation and bleomycin was dripped onto the vocal cords, facilitating aspiration. Rats were then returned to their cages until they fully recovered from anesthesia and were monitored daily for the duration of the experiment. In this experiment, the [^18F]-labeled LPA1 antagonist, produced as described in the above Examples, was tested for its ability to discriminate between normal lung in wild type rats and increased lung LPA1 expression in the bleomycin rat disease model. The bleomycin treated rats were used at 14 and 15 days post bleomycin treatment. […] For PET image acquisition, rats were placed in an anesthetic induction chamber and 3% isoflurane inhalant anesthesia was delivered in 100% O2 at a rate of 1-1.5 L/min. Once sedated, the rats were removed from the induction chamber and placed into a plexiglass 2-chamber holder (custom-made by BMS-Applied Biotechnology group) within the gantry of the PET system (microPET® F220™, Siemens Preclinical Solutions, Knoxville, Tenn.) where they remained for the duration of the study. Anesthesia was maintained with 1-1.5% isoflurane inhalant anesthesia delivered in 100% 02 at a rate of 2 L/min via the nose-cone. Animals were kept warm using an external standalone temperature regulating unit (M2M Imaging Corp) to prevent hypothermia during imaging. Rat respiration was continuously monitored during imaging procedures and isoflurane was adjusted dependent on depth of anesthesia. A 10-minute transmission image was first acquired using a ^57Co point source for the purpose of attenuation correction of the final PET images and confirmation of lung localization for region of interest (ROI) analysis. The scanning region was located beginning at the neck area and extending toward the hind limbs of each animal in order to place the lungs within the 7.6 cm microPET system axial field of view (FOV). Upon completion of the transmission scan, each rat received administration of between 19.5-29.7 MBq (542-803 μCi) of [^18F]-(1S,3S)-3-(((6-(5-((((4-(fluoro)butyl)(methyl) carbamoyl)oxy)methyl)-1-methyl-1H-1,2,3-triazol-4-yl)-2-methylpyridin-3-yl)oxy)cyclohexane-1-carboxylic acid tracer via tail vein catheter followed by a 2 hour dynamic PET emission scan. […] Images were reconstructed using a maximum a posteriori (MAP) algorithm with attenuation correction using the collected transmission images and corrected for radioisotope decay. The PET images were then co-registered with corresponding transmission images using anatomical landmarks (air in lung) and boundaries of the animal holder. Images were analyzed by Inveon Research Workstation (Siemens Medical Solutions USA Inc., PA). Analysis for each rat was done with regions of interest (ROIs) drawn onto each whole lung and a section of the liver using the co-registered transmission images. There were 3-4 ROIs drawn for each lung volume (left whole lung and right whole lung) as well as 3 ROIs drawn on a section of the liver. ROIs were drawn inside the whole lung to avoid spillover signal from the heart and liver. ROIs were drawn on a section of the liver using the same method. Based on quantitative values from these ROIs (nCi/cc), % injected dose/cc (% ID/g) was calculated. Radiotracer uptake was compared across lung tissues in these groups using the time periods between 60-90 minutes post radioligand injection. […]

[1] = as above; details: Sprague Dawley, rat, lung, intravenous, bleomycin treated rats, baseline
Procedure: as §1

LPA1, sequence (P61794 whole entry): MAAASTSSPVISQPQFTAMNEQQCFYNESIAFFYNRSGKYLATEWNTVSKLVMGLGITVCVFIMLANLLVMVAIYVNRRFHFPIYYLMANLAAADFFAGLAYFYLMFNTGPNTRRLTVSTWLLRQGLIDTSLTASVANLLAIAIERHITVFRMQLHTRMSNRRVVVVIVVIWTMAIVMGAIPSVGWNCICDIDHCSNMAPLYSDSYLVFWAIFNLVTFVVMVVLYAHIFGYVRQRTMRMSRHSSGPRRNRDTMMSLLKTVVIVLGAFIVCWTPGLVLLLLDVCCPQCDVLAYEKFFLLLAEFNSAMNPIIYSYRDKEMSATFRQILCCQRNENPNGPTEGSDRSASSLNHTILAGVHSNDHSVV

Baseline % ID/g in Lung, Mean (LPA1; Group 1 (1 mg/kg group, n=6), listed as [^18F]-(1S,3S)-3-(6-(5-((((4-(fluoro)butyl)(methyl)carbamoyl)oxy)methyl)-1-meth, 1 mg/kg))): 0.12 % ID/g
Baseline % ID/g in Lung, Mean (LPA1; Group 2 (3 mg/kg group, n=6), listed as [^18F]-(1S,3S)-3-(6-(5-((((4-(fluoro)butyl)(methyl)carbamoyl)oxy)methyl)-1-meth, 3 mg/kg))): 0.10 % ID/g
Baseline % ID/g in Lung, Mean (LPA1; Group 3 (10 mg/kg group, n=6), listed as [^18F]-(1S,3S)-3-(6-(5-((((4-(fluoro)butyl)(methyl)carbamoyl)oxy)methyl)-1-meth, 10 mg/kg))): 0.12 % ID/g
Baseline % ID/g in Lung, Mean (LPA1; Group 4 (30 mg/kg group, n=7), listed as [^18F]-(1S,3S)-3-(6-(5-((((4-(fluoro)butyl)(methyl)carbamoyl)oxy)methyl)-1-meth, 30 mg/kg))): 0.09 % ID/g
Baseline % ID/g in Lung, Mean (LPA1; Group 5 (100 mg/kg group, n=6), listed as [^18F]-(1S,3S)-3-(6-(5-((((4-(fluoro)butyl)(methyl)carbamoyl)oxy)methyl)-1-meth, 100 mg/kg))): 0.10 % ID/g
tissue uptake ([1]; 1 mg/kg, Group 1 (1 mg/kg group, n=6)): 0.12 ± 0.01 %ID/g
tissue uptake ([1]; 3 mg/kg, Group 2 (3 mg/kg group, n=6)): 0.1 ± 0.01 %ID/g
tissue uptake ([1]; 10 mg/kg, Group 3 (10 mg/kg group, n=6)): 0.12 ± 0.02 %ID/g
tissue uptake ([1]; 30 mg/kg, Group 4 (30 mg/kg group, n=7)): 0.09 ± 0.01 %ID/g
tissue uptake ([1]; 100 mg/kg, Group 5 (100 mg/kg group, n=6)): 0.1 ± 0.01 %ID/g
Structure (SMILES): Cc1nc(-c2nnn(C)c2COC(=O)N(C)CCCC[18F])ccc1O[C@H]1CCC[C@H](C(=O)O)C1 [Example 16]
